Results taken from the NIST ThermoML archive (doi:10.1021/je0501843).
“And” between values parts separate entries of the source, which are not always exact repeats. Identical values can stand only once.

Experiment: molar heat capacity at constant volume
Conditions: Fluid (supercritical or subcritical phases), Vacuum adiabatic calorimetry

FC(F)C(F)(F)F [pentafluoroethane]
Conditions | molar heat capacity at constant volume
306 K, Mass density=1202.8 kg/m3 | 102.77 J/K/mol
307 K, Mass density=1202.7 kg/m3 | 103.99 J/K/mol
308 K, Mass density=1202.5 kg/m3 | 103.96 J/K/mol
309 K, Mass density=1202.4 kg/m3 | 102.49 J/K/mol
310 K, Mass density=1202.3 kg/m3 | 101.48 J/K/mol
311 K, Mass density=1202.1 kg/m3 | 102.64 J/K/mol
312 K, Mass density=1202 kg/m3 | 103.21 J/K/mol
313 K, Mass density=1201.9 kg/m3 | 102.64 J/K/mol
314 K, Mass density=1201.7 kg/m3 | 103.24 J/K/mol
315 K, Mass density=1201.6 kg/m3 | 102.92 J/K/mol
316 K, Mass density=1201.5 kg/m3 | 103.09 J/K/mol
317 K, Mass density=1201.4 kg/m3 | 102.73 J/K/mol
318 K, Mass density=1201.2 kg/m3 | 102.19 J/K/mol
319 K, Mass density=1201.1 kg/m3 | 102.74 J/K/mol
320 K, Mass density=1201 kg/m3 | 102.92 J/K/mol
321 K, Mass density=1200.8 kg/m3 | 102.75 J/K/mol and 102.7 J/K/mol
322 K, Mass density=1079.2 kg/m3 | 106.18 J/K/mol and 102.47 J/K/mol
322 K, Mass density=1200.7 kg/m3 | 102.47 J/K/mol and 101.89 J/K/mol
323 K, Mass density=1079.1 kg/m3 | 105.94 J/K/mol and 104.02 J/K/mol
323 K, Mass density=1200.6 kg/m3 | 102.89 J/K/mol and 102.1 J/K/mol
324 K, Mass density=1079 kg/m3 | 105.71 J/K/mol and 105.31 J/K/mol
324 K, Mass density=1200.5 kg/m3 | 102.77 J/K/mol and 102.45 J/K/mol
325 K, Mass density=1078.9 kg/m3 | 104.71 J/K/mol and 104.09 J/K/mol
325 K, Mass density=1200.3 kg/m3 | 102.83 J/K/mol and 102.31 J/K/mol
326 K, Mass density=1078.8 kg/m3 | 103.25 J/K/mol and 103.34 J/K/mol
326 K, Mass density=1200.2 kg/m3 | 102.63 J/K/mol and 102.1 J/K/mol
327 K, Mass density=1078.7 kg/m3 | 104.31 J/K/mol
327 K, Mass density=1200.1 kg/m3 | 102.65 J/K/mol and 102.35 J/K/mol
328 K, Mass density=1078.6 kg/m3 | 105.03 J/K/mol and 104.85 J/K/mol
328 K, Mass density=1199.9 kg/m3 | 102.89 J/K/mol
328 K, Mass density=1200 kg/m3 | 103.64 J/K/mol
329 K, Mass density=1078.5 kg/m3 | 104.79 J/K/mol and 104.41 J/K/mol
329 K, Mass density=1199.8 kg/m3 | 102.81 J/K/mol and 102.69 J/K/mol
330 K, Mass density=1078.4 kg/m3 | 105.01 J/K/mol and 104.07 J/K/mol
330 K, Mass density=1199.7 kg/m3 | 103.09 J/K/mol
331 K, Mass density=1078.3 kg/m3 | 104.36 J/K/mol and 104.2 J/K/mol
331 K, Mass density=1199.6 kg/m3 | 102.64 J/K/mol
332 K, Mass density=976.3 kg/m3 | 110.56 J/K/mol and 112.17 J/K/mol
332 K, Mass density=1078.2 kg/m3 | 104.98 J/K/mol and 105.47 J/K/mol
332 K, Mass density=1199.4 kg/m3 | 103.45 J/K/mol
333 K, Mass density=976.2 kg/m3 | 107.88 J/K/mol and 109.12 J/K/mol
333 K, Mass density=1078.1 kg/m3 | 105.77 J/K/mol and 104.87 J/K/mol
333 K, Mass density=1199.3 kg/m3 | 103.83 J/K/mol
334 K, Mass density=976.2 kg/m3 | 105.25 J/K/mol and 107.12 J/K/mol
334 K, Mass density=1078 kg/m3 | 104.98 J/K/mol and 103.53 J/K/mol
334 K, Mass density=1199.2 kg/m3 | 103.39 J/K/mol
335 K, Mass density=976.1 kg/m3 | 106.11 J/K/mol and 106.99 J/K/mol
335 K, Mass density=1077.9 kg/m3 | 104.43 J/K/mol and 103.57 J/K/mol
335 K, Mass density=1199.1 kg/m3 | 102.85 J/K/mol
336 K, Mass density=976 kg/m3 | 107.32 J/K/mol and 107.23 J/K/mol
336 K, Mass density=1077.8 kg/m3 | 104.74 J/K/mol and 104.05 J/K/mol
336 K, Mass density=1198.9 kg/m3 | 102.26 J/K/mol
337 K, Mass density=975.9 kg/m3 | 107.6 J/K/mol and 108.43 J/K/mol
337 K, Mass density=1077.7 kg/m3 | 105.57 J/K/mol and 105.69 J/K/mol
337 K, Mass density=1198.8 kg/m3 | 103.71 J/K/mol
338 K, Mass density=975.9 kg/m3 | 107.08 J/K/mol and 107.59 J/K/mol
338 K, Mass density=1077.6 kg/m3 | 104.15 J/K/mol and 105.09 J/K/mol
338 K, Mass density=1198.7 kg/m3 | 104.23 J/K/mol
339 K, Mass density=883.4 kg/m3 | 114.19 J/K/mol
339 K, Mass density=975.8 kg/m3 | 106.21 J/K/mol and 106.6 J/K/mol
339 K, Mass density=1077.5 kg/m3 | 103.97 J/K/mol and 103.59 J/K/mol
339 K, Mass density=1198.5 kg/m3 | 104 J/K/mol
340 K, Mass density=883.3 kg/m3 | 112.9 J/K/mol
340 K, Mass density=975.7 kg/m3 | 106.54 J/K/mol and 107.42 J/K/mol
340 K, Mass density=1077.4 kg/m3 | 104.49 J/K/mol and 105.35 J/K/mol
341 K, Mass density=883.3 kg/m3 | 112.1 J/K/mol
341 K, Mass density=975.6 kg/m3 | 107.88 J/K/mol and 107.61 J/K/mol
341 K, Mass density=1077.3 kg/m3 | 105.62 J/K/mol and 105.16 J/K/mol
342 K, Mass density=883.2 kg/m3 | 111.03 J/K/mol
342 K, Mass density=975.6 kg/m3 | 107 J/K/mol
342 K, Mass density=1077.2 kg/m3 | 104.92 J/K/mol and 104.79 J/K/mol
343 K, Mass density=502.9 kg/m3 | 134.81 J/K/mol
343 K, Mass density=883.1 kg/m3 | 110.42 J/K/mol
343 K, Mass density=975.5 kg/m3 | 106.86 J/K/mol
343 K, Mass density=1077.1 kg/m3 | 104.17 J/K/mol and 104.84 J/K/mol
344 K, Mass density=502.9 kg/m3 | 132.16 J/K/mol
344 K, Mass density=585.8 kg/m3 | 125.97 J/K/mol
344 K, Mass density=883.1 kg/m3 | 111.3 J/K/mol
344 K, Mass density=975.4 kg/m3 | 106.41 J/K/mol
344 K, Mass density=1077 kg/m3 | 104.75 J/K/mol and 104.6 J/K/mol
345 K, Mass density=502.9 kg/m3 | 126.98 J/K/mol
345 K, Mass density=585.7 kg/m3 | 123.95 J/K/mol
345 K, Mass density=585.8 kg/m3 | 131.35 J/K/mol
345 K, Mass density=688.7 kg/m3 | 126.83 J/K/mol
345 K, Mass density=883 kg/m3 | 111.02 J/K/mol
345 K, Mass density=975.3 kg/m3 | 107.26 J/K/mol
345 K, Mass density=1076.9 kg/m3 | 105.11 J/K/mol and 104.72 J/K/mol
346 K, Mass density=403.2 kg/m3 | 120.08 J/K/mol
346 K, Mass density=502.9 kg/m3 | 120.15 J/K/mol
346 K, Mass density=585.7 kg/m3 | 120.32 J/K/mol
346 K, Mass density=585.8 kg/m3 | 127.65 J/K/mol
346 K, Mass density=688.7 kg/m3 | 123.21 J/K/mol
346 K, Mass density=774.1 kg/m3 | 115.2 J/K/mol
346 K, Mass density=883 kg/m3 | 110.89 J/K/mol
346 K, Mass density=975.3 kg/m3 | 107.47 J/K/mol and 107.62 J/K/mol
346 K, Mass density=1076.8 kg/m3 | 105.53 J/K/mol and 105.08 J/K/mol
347 K, Mass density=403.2 kg/m3 | 117.75 J/K/mol
347 K, Mass density=503 kg/m3 | 115.93 J/K/mol
347 K, Mass density=585.7 kg/m3 | 117.72 J/K/mol
347 K, Mass density=585.8 kg/m3 | 123.89 J/K/mol
347 K, Mass density=688.7 kg/m3 | 119.23 J/K/mol
347 K, Mass density=774.1 kg/m3 | 114.9 J/K/mol
347 K, Mass density=882.9 kg/m3 | 110.19 J/K/mol
347 K, Mass density=975.2 kg/m3 | 105.52 J/K/mol and 107.28 J/K/mol
347 K, Mass density=1076.7 kg/m3 | 105.04 J/K/mol and 104.54 J/K/mol
348 K, Mass density=403.3 kg/m3 | 116.59 J/K/mol
348 K, Mass density=503 kg/m3 | 118.49 J/K/mol
348 K, Mass density=585.7 kg/m3 | 124.85 J/K/mol and 118.08 J/K/mol
348 K, Mass density=688.7 kg/m3 | 117.7 J/K/mol
348 K, Mass density=774 kg/m3 | 114.62 J/K/mol
348 K, Mass density=882.8 kg/m3 | 109.75 J/K/mol
348 K, Mass density=975.1 kg/m3 | 106.21 J/K/mol and 107.41 J/K/mol
348 K, Mass density=1076.6 kg/m3 | 104.59 J/K/mol and 104.74 J/K/mol
349 K, Mass density=403.3 kg/m3 | 115.69 J/K/mol
349 K, Mass density=503 kg/m3 | 119.76 J/K/mol
349 K, Mass density=585.7 kg/m3 | 123.44 J/K/mol and 117.14 J/K/mol
349 K, Mass density=688.6 kg/m3 | 119.03 J/K/mol
349 K, Mass density=774 kg/m3 | 115.4 J/K/mol
349 K, Mass density=882.8 kg/m3 | 110.59 J/K/mol
349 K, Mass density=975 kg/m3 | 107.41 J/K/mol and 108.49 J/K/mol
349 K, Mass density=1076.6 kg/m3 | 105.38 J/K/mol and 105.95 J/K/mol
350 K, Mass density=403.4 kg/m3 | 113.67 J/K/mol
350 K, Mass density=503 kg/m3 | 116.82 J/K/mol
